Laboratory results reported in patent US7196080B2, “Phenylpyridinecarbonylpiperazinederivative” (Astellas Pharma Inc., priority 2001, dated 2007).

How the values were obtained:
[1] = test system: PDE3; test: PDE3 inhibitory activity; type: biochemical; conditions: in the same concentration (as the PDE4 IC50, 12 nM or less)
Description: (§1) A concentration of test compound which inhibits 50% of the metabolic activity of PDE4 was defined as IC50 and calculated for each compound. By applying the above test method and the method described in WO 97/19078, inhibitory activity against PDE1, PDE2, PDE3 and PDE5 was measured similarly.

[2] = test system: PDE1; test: PDE1 inhibitory activity; type: biochemical; conditions: in the same concentration (as the PDE4 IC50, 12 nM or less)
Description: as §1

[3] = molecular target: PDE5 (Homo sapiens, UniProt O76074); test: PDE5 inhibitory activity; type: biochemical; conditions: in the same concentration (as the PDE4 IC50, 12 nM or less)
Description: as §1

[4] = molecular target: PDE2 (Homo sapiens, UniProt O00408); test: PDE2 inhibitory activity; type: biochemical; conditions: in the same concentration (as the PDE4 IC50, 12 nM or less)
Description: as §1

Sequence of PDE2 (O00408 whole entry): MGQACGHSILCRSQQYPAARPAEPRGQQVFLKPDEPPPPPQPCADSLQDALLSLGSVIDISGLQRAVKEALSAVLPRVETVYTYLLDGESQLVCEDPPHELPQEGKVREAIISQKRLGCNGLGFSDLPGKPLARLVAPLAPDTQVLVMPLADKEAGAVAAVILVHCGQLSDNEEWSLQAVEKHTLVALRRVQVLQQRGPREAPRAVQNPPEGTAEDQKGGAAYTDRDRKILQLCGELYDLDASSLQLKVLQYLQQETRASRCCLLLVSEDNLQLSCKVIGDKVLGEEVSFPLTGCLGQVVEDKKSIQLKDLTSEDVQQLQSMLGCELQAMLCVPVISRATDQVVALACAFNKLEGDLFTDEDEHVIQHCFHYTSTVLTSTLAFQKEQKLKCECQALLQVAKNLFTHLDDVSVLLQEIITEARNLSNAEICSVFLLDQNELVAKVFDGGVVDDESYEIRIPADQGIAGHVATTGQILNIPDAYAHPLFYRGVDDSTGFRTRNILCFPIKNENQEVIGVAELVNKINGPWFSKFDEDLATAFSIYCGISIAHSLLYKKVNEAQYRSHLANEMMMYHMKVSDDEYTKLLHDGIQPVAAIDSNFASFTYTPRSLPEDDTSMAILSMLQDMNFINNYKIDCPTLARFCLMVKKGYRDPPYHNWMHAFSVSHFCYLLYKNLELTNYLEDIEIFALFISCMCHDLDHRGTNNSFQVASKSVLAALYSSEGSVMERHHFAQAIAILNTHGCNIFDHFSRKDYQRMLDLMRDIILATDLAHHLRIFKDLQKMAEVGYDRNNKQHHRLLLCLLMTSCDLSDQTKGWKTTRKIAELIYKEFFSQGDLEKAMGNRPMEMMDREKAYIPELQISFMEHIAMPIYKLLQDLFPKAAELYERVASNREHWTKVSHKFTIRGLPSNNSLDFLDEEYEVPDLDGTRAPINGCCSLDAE

Compound	inhibitory activity against PDE3 [1]	inhibitory activity against PDE1 [2]	inhibitory activity against PDE5 [3]	inhibitory activity against PDE2 [4]	melting point [°C]
4-{2-[(6-{4-]6-(3,4-dimethoxyphenyl)pyridine-2-carbonyl)piperazin-1-yl}-3-pyridyl}oxylethyl)morpholine [Example 99]	hardly exhibited inhibitory activity	hardly exhibited inhibitory activity	hardly exhibited inhibitory activity	hardly exhibited inhibitory activity	
COc1ccc(-c2cccc(C(=O)N3CCN(c4ccc(C(C)=O)cc4)CC3)n2)cc1OCC1CC1 (hydrate or solvate) [Example 112, 1-(4-{4-[6-(3-cyclopropylmethoxy-4-methoxyphenyl)pyridine-2-carbonyl]piperazin-1-yl}phenyl)ethanone]					142 to 144
COc1ccc(N2CCN(C(=O)c3cccc(-c4ccc(OC)c(OC)c4)n3)CC2)cc1 [Example 2, 1-[6-(3,4-dimethoxyphenyl)pyridine-2-carbonyl]-4-(4-methoxyphenyl)piperazine]	hardly exhibited inhibitory activity	hardly exhibited inhibitory activity	hardly exhibited inhibitory activity	hardly exhibited inhibitory activity	169 to 172
COc1ccc(-c2cccc(C(=O)N3CCN(c4ccc(N)cc4)CC3)n2)cc1OC [Example 9, 1-[6-(3,4-dimethoxyphenyl)pyridine-2-carbonyl]-4-(4-aminophenyl) piperazine]					164 to 165
COc1ccc(-c2cccc(C(=O)N3CCN(c4ccc(OCc5cc[n+]([O-])cc5)cc4)CC3)n2)cc1OC [Example 10, 1-[6-(3,4-dimethoxyphenyl)pyridine-2-carbonyl]-4-[4-(1-oxido-4-pyridylmethoxy)phenyl]piperazine]	hardly exhibited inhibitory activity	hardly exhibited inhibitory activity	hardly exhibited inhibitory activity	hardly exhibited inhibitory activity	182 to 183
COc1ccc(-c2cccc(C(=O)N3CCN(c4ccc(C(N)=O)cc4)CC3)n2)cc1OC [Example 12, 4-{4-[6-(3,4-dimethoxyphenyl)pyridine-2-carbonyl]piperazin-1-yl}benzamide]					237 to 240
COc1ccc(-c2cccc(C(=O)N3CCN(c4ccc(N5CCOCC5)cc4)CC3)n2)cc1OC [Example 15, 4-(4-{4-[6-(3,4-dimethoxyphenyl)pyridine-2-carbonyl]piperazin-1-yl)phenyl)morpholine]	hardly exhibited inhibitory activity	hardly exhibited inhibitory activity	hardly exhibited inhibitory activity	hardly exhibited inhibitory activity	129 to 130
COc1ccc(-c2cccc(C(=O)N3CCN(c4ccc(NS(C)(=O)=O)cc4)CC3)n2)cc1OC [Example 16, 4′-{4-[6-(3,4-dimethoxyphenyl)pyridine-2-carbonyl]piperazin-1-yl}methanesulfonanilide]					168 to 170
COc1ccc(-c2cccc(C(=O)N3CCN(c4ccc(C(C)=O)cc4)CC3)n2)cc1OC [Example 32]	hardly exhibited inhibitory activity	hardly exhibited inhibitory activity	hardly exhibited inhibitory activity	hardly exhibited inhibitory activity	161 to 163
COc1ccc(-c2cccc(C(=O)N3CCN(c4ccc(NC(C)=O)cc4)CC3)n2)cc1OC [Example 43, 4′-{4-[6-(3,4-dimethoxyphenyl)pyridine-2-carbonyl]piperazin-1-yl}acetanilide]	hardly exhibited inhibitory activity	hardly exhibited inhibitory activity	hardly exhibited inhibitory activity	hardly exhibited inhibitory activity	201 to 203
CCN(CC)CCC(=O)Nc1ccc(N2CCN(C(=O)c3cccc(-c4ccc(OC)c(OC)c4)n3)CC2)cc1 [Example 45, 3-diethylamino-4′-{4-[6-(3,4-dimethoxyphenyl)pyridine-2-carbonyl]piperazin-1-yl}propananilide]	hardly exhibited inhibitory activity	hardly exhibited inhibitory activity	hardly exhibited inhibitory activity	hardly exhibited inhibitory activity	131 to 134
COc1ccc(-c2cccc(C(=O)N3CCN(c4cccc(Br)n4)CC3)n2)cc1OC [Example 77, 1-(6-bromo-2-pyridyl)-4-[6-(3,4-dimethoxyphenyl)pyridine-2-carbonyl]piperazine]	hardly exhibited inhibitory activity	hardly exhibited inhibitory activity	hardly exhibited inhibitory activity	hardly exhibited inhibitory activity	144 to 145
COc1ccc(-c2cccc(C(=O)N3CCN(c4ccc(OCCN5CCC(O)CC5)cc4)CC3)n2)cc1OC [Example 95, 1-[2-(4-{4-[6-(3,4-dimethoxyphenyl)pyridine-2-carbonyl]piperazin-1-yl}phenoxy)ethyl]piperidin-4-ol]	hardly exhibited inhibitory activity	hardly exhibited inhibitory activity	hardly exhibited inhibitory activity	hardly exhibited inhibitory activity	143 to 144
COc1ccc(-c2cccc(C(=O)N3CCN(c4ccc(C(C)=O)cc4)CC3)n2)cc1OCC1CC1 [Example 112, 1-(4-{4-[6-(3-cyclopropylmethoxy-4-methoxyphenyl)pyridine-2-carbonyl]piperazin-1-yl}phenyl)ethanone]	hardly exhibited inhibitory activity	hardly exhibited inhibitory activity	hardly exhibited inhibitory activity	hardly exhibited inhibitory activity	
COc1ccc(-c2cccc(C(=O)N3CCN(c4ccc(C(C)=O)cc4)CC3)n2)cc1Cl [Example 113]					168 to 170
COc1ccc(-c2cccc(C(=O)N3CCN(c4ccc(C(C)=O)cc4)CC3)n2)cc1OC(F)F [Example 114]					160 to 162
COc1ccc(-c2cccc(C(=O)N3CCN(c4ccc(C(C)=O)cc4)CC3)n2)cc1F [Example 115]					168 to 170
